Assay results as given in patent US8476280B2, “Compositions and methods for combating lower urinary tract dysfunctions with delta opioid receptor agonists” (Versi Group, LLC, priority 2002, dated 2013).

How the values were obtained:
healthy conscious rats = experiment: Cystometric parameters in healthy conscious rats; type: in vivo, rat; conditions: for inhibition of bladder contractions (micturition pressure): intravenous administration, recorded 90 minutes after injection; for frequency of bladder contractions / pressure of bladder contractions: oral administration via stomach cannula, recorded 120 minutes after administration
Method: Male rats weighing 200 to 250 grams were used. The rats were housed with free access to food and maintained on forced 12 hours alternating light-dark cycle at 22-24° C. for at least one week, except during performance of the experiment.
The rats were anesthetized with pentobarbital, 65 mg/kg i.p. and placed in a supine position. An approximately 10 mm long midline incision was made in the shaved and cleaned abdominal wall. The urinary bladder was freed from adhering tissues, emptied and then cannulated, via an incision at the dome with a polyethylene cannula (PE50), which was permanently sutured in place. The cannula was exteriorized through a subcutaneous tunnel in the retroscapular area, where it was connected with a plastic adapter to avoid the risk of removal by the rats. For intravenous (i.v.) injection of test compounds, a polyethylene tubing (PE50) was inserted into the jugular vein and exteriorized in the retroscapular area. Since cystometrographic parameters have been reported to be influenced by the time elapsed after catheter implantation, the rats were treated with 1 mg/kg Penicilline G, intramuscularly, to prevent infection and allowed to rest 3 days after implantation and before testing commenced.
For oral administration of test compounds, a polyethylene tube (PE50) was inserted into the stomach and was permanently sutured in place. The cannula was exteriorized through a subcutaneous tunnel in the retroscapular area, where it was connected with a plastic adapter to avoid the risk of removal by the rats.
On the day of the experiments, the rats were placed in Bollman's cages, the free tip of the bladder catheter was connected through a T-shaped tube to a pressure transducer (Grass PT300 or Gould P23) to record bladder pressure and to a peristaltic pump for continuous infusion, at a constant rate of […] of saline solution into the urinary bladder. The intraluminal pressure signal during infusion was continuously recorded. Two urodynamic parameters were evaluated: micturition pressure and interval between micturition that equates to volume capacity before detrusor contraction occurs (decrease in frequency of contractions). Micturition pressure is defined as the maximal intravesical pressure induced by the contraction of detrusor during micturition. Data was calculated as the mean of testing results for several animals at each dosage. The drug effects were expressed as a percent relative to activity of the control data, which was set at 100%.
Infusion was commenced with saline solution to determine activity in rats without test compounds to be used as the control baseline. Saline solution infusion was interrupted and the test compounds were administered. At time points 90 minutes after intravenous administration and 120 minutes after oral drug administration, cystometrograms were recorded in each animal and the mean values of the recorded cystometrographic parameters were calculated.

[1] = tested on: rats experiencing partial urethral restriction; experiment: Cystometric parameters in rats experiencing partial urethral restriction; type: in vivo, rat; conditions: oral administration of 10 mg/kg
From the text: Male rats weighing 200 to 250 grams were used. The method to produce bladder outlet obstructions thereby producing partial urethral restriction is essentially that reported by Malmgren et al, J. Urol. 137:1291-1294, the disclosure of which is hereby incorporated herein by reference. Following anesthetic induction, the ventral abdominal wall and perineum were shaved and cleaned with betadine. A lower midline abdominal incision was made, and the bladder and proximal urethra were identified. A plastic rod with a ˜1 mm outer diameter was placed parallel to the urethra, and a silk ligature was tied around the urethra and the plastic rod. […]
On the day of testing, the bladder catheter was connected through a T-shaped tube to a pressure transducer (Grass PT300 or Gould P23) to record bladder pressure isovolumetrically and to a peristaltic pump for continuous infusion, at a constant rate of 0.1 ml/min, of saline solution into the urinary bladder. The pressure signal during infusion was continuously recorded.
Two urodynamic parameters were evaluated in the test rats: micturition pressure and interval between voiding that equates to volume capacity before detrusor contraction occurs (decrease in frequency of contractions). Changes in bladder activity were recorded and expressed as pressure or volume over time.

Compound	inhibition of bladder contractions (micturition pressure) (healthy conscious rats)	frequency of bladder contractions (healthy conscious rats)	pressure of bladder contractions (healthy conscious rats)	frequency and intensity of pressure contractions ([1]; three test rats)	volume capacity (bladder capacity before voiding) ([1]; trace 1d)
CCN(CC)C(=O)c1ccc(C(c2ccccc2)N2C[C@@H](C)N(Cc3cccc(F)c3)C[C@@H]2C)cc1 (stereo partly drawn) [Compound 1, 4-((alpha-S)-alpha-((2S,5R)-2,5-Dimethyl-4-(3-fluorobenzyl)-1-piperazinyl)benzyl)-N,N-diethylbenzamide]	effected an inhibition of bladder contractions	a decrease in the frequency of bladder contractions	a decrease in the pressure of these contractions	marked improvement in both frequency and intensity of pressure contractions (reduced)	volume capacity increased
C[C@@H]1CN(Cc2ccc(C(=O)O)cc2)[C@@H](C)CN1[C@H](c1ccc(S(=O)(=O)N(C)C)cc1)c1cccc(O)c1 [Compound 11, 4-{4-[(R)-(4-dimethylsulfamoyl-phenyl)-(3-hydroxyphenyl)methyl]-(2S,5R)-dimethylpiperazin-1-ylmethyl}benzoic acid]	–	a decrease in the frequency of bladder contractions	a decrease in the pressure of these contractions	–	–
CCN(CC)C(=O)c1ccc(C(c2ccccc2)N2C[C@@H](C)N(Cc3ccc(F)cc3)C[C@@H]2C)cc1 (stereo partly drawn) [Compound 2, 4-((alpha-S)-alpha-((2S,5R)-2,5-Dimethyl-4-(4-fluorobenzyl)-1-piperazinyl)benzyl)-N,N-diethylbenzamide]	effected an inhibition of bladder contractions	–	–	–	–
C=CCN1C[C@H](C)N(C(c2ccccc2)c2cccc(C(=O)N(C)c3cccc(F)c3)c2)C[C@H]1C (stereo partly drawn) [Compound 4, 3-((alpha-S)-alpha-((2S,5R)-4-Allyl-2,5-dimethyl-1-piperazinyl)benzyl)-N-(3-fluorophenyl)-N-methylbenzamide]	effected an inhibition of bladder contractions	–	–	–	–
Cc1ccccc1[C@H](c1cccc(O)c1)N1C[C@@H](C)NC[C@@H]1C [Compound 10, 3-((S)-((2S,5R)-2,5-Dimethyl-1-piperazinyl)(2-methylphenyl)methyl)phenol]	effected an inhibition of bladder contractions	–	–	–	–
C=CCN1C[C@H](C)N(C(c2ccc(C(=O)N(CC)CC)cc2)c2cccc(OCC(=O)O)c2)C[C@H]1C (stereo partly drawn) [Compound 3, 3-((alpha-R)-alpha-((2S,5R)-4-allyl-2,5-dimethyl-1-piperazinyl)-4-(diethylaminocarbonyl)benzyl)phenoxyacetic acid]	effected an inhibition of bladder contractions	–	–	–	–
